Test results taken from patent US9403806B1, “Cognition enhancing compounds and compositions, methods of making, and methods of treating” (NeuroSolis, Inc., priority 2010, dated 2016).

Assay: Plasma concentration in rats, iontophoresis patch versus oral gavage
Type: in vivo, Long Evans Hooded rat
Conditions: rat
Source text: Two patches were made up, consisting (in order from the outer layer to the skin contacting surface, respectively): adhesive tape (Transpore, 27 mm wide, 3M), circular stainless steel electrodes (22 mm dia) with a central hole for a stainless steel machine screw to which the electrode wire was attached, and 2 layers of 3MM CHR filter paper (Cat #3030-861, Whatman International, Ltd).
The mid-dorsal area of a Long Evans Hooded rat (approximate weight, 320 grams), surgically prepared with a jugular vein catheter (Charles River), was shaved and the skin was then cleaned using an Electrode Prep Pad (Professional Disposables, Inc, Cat #B59800). […]
Blood (400 μl) was withdrawn from the catheters in each rat every 30 minutes, transferred to 1.5 ml centrifuge tubes containing heparin (15 units/tube), and the plasma was separated by centrifugation from the cellular components. The plasma samples were maintained at 4 deg C. until analyzed. […]
The ultra-filtrates were subjected to reverse-phase liquid chromatography using a 150×2.1 mm Agilent C8 reverse-phase column on a Shimadzu Prominence LC, eluting the MCD-386 with an isocratic flow of 2% acetonitrile+0.1% formic acid. The concentration of MCD-386 in the column effluent was measured using an Applied Biosystems API-3200 triple quadrupole mass spectrometer equipped with a Turbo V source (electrospray sample injection) system. […]

## CCc1noc(C2CN=CNC2)n1 (centres unmarked) [MCD-386, 3-ethyl-5-(1,4,5,6-tetrahydropyrimidin-5-yl)-1,2,4-oxadiazole]
  bioavailability by transdermal delivery versus oral administration: up to three times higher
Iontophoresis patch, dose 3.2 mg/kg, 30 minutes
  Plasma Concentration: 848 nM
